Experiment [1] has as its target T1, D(2) dopamine receptor (Homo sapiens, UniProt P14416). The experiment is described as follows: Inhibition of D2L dopamine receptor in HEK 293 cells by intracellular calcium assay. Format: functional, cell-based, HEK293. On the technique in general: A change in cytosolic calcium serves as a functional read-out for many receptors and channels.
In experiment [2] the target is T1, D(2) dopamine receptor. The experiment is described as follows: Displacement of [3H]spiperone from D2L dopamine receptor. (In general: Displacement assays read how much labelled ligand stays bound in the presence of the test substance.)
The target in experiment [3] is T2, D(1A) dopamine receptor (Homo sapiens, UniProt P21728). Nature of the experiment: Displacement of [3H]SCH 23390 from D1 dopamine receptor.
For experiment [4], the target named is T2, D(1A) dopamine receptor. The experiment is described as follows: Inhibition of D1 dopamine receptor in HEK 293 cells by intracellular calcium assay. Format: functional, cell-based, HEK293.
Experiment [5] concerns the target T3, D(1B) dopamine receptor (Homo sapiens, UniProt P21918). Nature of the experiment: Inhibition of D5 dopamine receptor in HEK 293 cells by intracellular calcium assay. Format: functional, cell-based, HEK293.
For experiment [6], the target named is T3, D(1B) dopamine receptor. Nature of the experiment: Binding affinity to D5 dopamine receptor by radioligand binding assay.
The target of a further experiment is D(3) dopamine receptor (Homo sapiens, UniProt P35462). The experiment is described as follows: Binding affinity to D3 dopamine receptor by radioligand binding assay.
For the next experiment, the target named is T4, D(4) dopamine receptor (Homo sapiens, UniProt P21917).
T4 sequence (P21917 whole entry): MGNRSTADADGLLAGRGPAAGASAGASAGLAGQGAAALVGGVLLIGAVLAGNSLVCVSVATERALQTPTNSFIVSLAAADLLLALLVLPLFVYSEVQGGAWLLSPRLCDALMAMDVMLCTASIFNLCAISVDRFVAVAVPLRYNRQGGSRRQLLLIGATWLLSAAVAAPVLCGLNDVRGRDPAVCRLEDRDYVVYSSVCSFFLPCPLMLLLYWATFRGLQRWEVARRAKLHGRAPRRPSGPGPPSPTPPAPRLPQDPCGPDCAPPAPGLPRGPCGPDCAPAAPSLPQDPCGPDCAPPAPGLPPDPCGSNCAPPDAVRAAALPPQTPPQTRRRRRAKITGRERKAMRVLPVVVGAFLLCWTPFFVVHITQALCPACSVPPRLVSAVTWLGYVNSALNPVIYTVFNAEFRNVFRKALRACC
The experiment is described as follows: Binding affinity to D4 dopamine receptor by radioligand binding assay.

The values below come from ChEMBL document CHEMBL1138197, “Dopamine/serotonin receptor ligands. 12(1): SAR studies on hexahydro-dibenz[d,g]azecines lead to 4-chloro-7-methyl-5,6,7,8,9,14-hexahydrodibenz[d,g]azecin-3-ol, the first picomolar D5-selective dopamine-receptor antagonist” (J Med Chem, 2006).

pKi: −log10 of the molar value.

Usually pKi stands for the negative decadic logarithm of the Ki, by convention in mol/L.

D(3) dopamine receptor, sequence (P35462 whole entry): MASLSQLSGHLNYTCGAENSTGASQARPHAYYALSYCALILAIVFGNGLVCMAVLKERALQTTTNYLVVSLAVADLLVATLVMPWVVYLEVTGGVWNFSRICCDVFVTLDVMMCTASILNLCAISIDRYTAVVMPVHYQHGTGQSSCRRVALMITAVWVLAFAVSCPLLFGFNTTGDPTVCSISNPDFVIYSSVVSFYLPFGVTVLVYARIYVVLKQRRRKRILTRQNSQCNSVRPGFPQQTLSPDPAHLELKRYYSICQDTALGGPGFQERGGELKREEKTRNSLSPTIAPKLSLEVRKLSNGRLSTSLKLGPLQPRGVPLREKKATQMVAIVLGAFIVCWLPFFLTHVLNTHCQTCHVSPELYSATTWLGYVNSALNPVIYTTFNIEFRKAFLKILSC
T2 sequence (P21728 whole entry): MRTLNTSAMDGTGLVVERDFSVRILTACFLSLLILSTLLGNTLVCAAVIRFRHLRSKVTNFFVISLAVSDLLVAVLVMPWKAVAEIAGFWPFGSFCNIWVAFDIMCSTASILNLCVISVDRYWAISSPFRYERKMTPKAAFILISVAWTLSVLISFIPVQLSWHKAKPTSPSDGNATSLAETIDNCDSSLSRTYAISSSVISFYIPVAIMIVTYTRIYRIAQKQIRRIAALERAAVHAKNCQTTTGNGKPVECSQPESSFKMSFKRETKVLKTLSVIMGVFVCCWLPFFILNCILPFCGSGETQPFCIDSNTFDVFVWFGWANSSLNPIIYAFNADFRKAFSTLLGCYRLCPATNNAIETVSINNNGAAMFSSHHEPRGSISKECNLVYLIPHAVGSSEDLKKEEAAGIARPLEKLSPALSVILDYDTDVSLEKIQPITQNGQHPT
T1 sequence (P14416 whole entry): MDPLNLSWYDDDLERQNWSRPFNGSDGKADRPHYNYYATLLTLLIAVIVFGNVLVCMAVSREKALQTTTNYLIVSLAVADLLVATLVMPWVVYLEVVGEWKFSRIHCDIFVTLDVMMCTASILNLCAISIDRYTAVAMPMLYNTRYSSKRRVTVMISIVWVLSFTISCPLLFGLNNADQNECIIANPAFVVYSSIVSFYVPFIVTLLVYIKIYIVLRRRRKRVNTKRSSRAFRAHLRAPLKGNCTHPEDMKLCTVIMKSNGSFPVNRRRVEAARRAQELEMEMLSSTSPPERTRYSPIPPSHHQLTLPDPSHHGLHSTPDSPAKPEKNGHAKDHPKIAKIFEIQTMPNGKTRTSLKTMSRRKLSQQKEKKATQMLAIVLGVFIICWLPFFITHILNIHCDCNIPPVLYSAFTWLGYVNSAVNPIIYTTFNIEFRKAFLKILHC
T3 sequence (P21918 whole entry): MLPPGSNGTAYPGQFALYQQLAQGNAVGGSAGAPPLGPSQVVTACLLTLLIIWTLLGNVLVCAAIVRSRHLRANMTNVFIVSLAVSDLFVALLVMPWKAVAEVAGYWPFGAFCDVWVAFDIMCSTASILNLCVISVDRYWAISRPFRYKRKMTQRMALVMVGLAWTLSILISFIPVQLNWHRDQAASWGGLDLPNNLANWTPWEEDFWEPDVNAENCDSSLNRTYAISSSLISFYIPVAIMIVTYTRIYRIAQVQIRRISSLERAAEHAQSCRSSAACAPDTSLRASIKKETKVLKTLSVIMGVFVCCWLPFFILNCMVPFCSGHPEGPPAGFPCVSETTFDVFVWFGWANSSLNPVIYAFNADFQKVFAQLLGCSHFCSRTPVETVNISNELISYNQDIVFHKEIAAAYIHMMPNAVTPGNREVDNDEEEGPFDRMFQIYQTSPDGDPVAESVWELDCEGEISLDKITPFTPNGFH

Consider `CN1CCc2ccccc2Cc2cc(O)ccc2CC1`, for which the pKi was 7.72 on D(2) dopamine receptor [1]; 7.43 on D(2) dopamine receptor [2]; 8.05 on D(1A) dopamine receptor [3]; 8.59 on D(1A) dopamine receptor [4]; 7.43 at D(1B) dopamine receptor [5]; 7.37 at D(1B) dopamine receptor [6]. On D(3) dopamine receptor, this molecule gave a negative logarithm of the Ki (pKi) of 6.53.

For the molecule `COc1ccc2c(c1)CCN(C)CCc1cc(OC)ccc1C2`, the pKi was 9.21 at D(2) dopamine receptor [1]; 8.19 at D(2) dopamine receptor [2]; 8.03 at D(1A) dopamine receptor [3]; 7.57 on D(1A) dopamine receptor [4]; 7.94 at D(1B) dopamine receptor [5]; 7.90 on D(1B) dopamine receptor [6]. The same molecule had a pKi at D(3) dopamine receptor of 6.99.

`COc1ccc2c(c1)CCN(C)CCc1ccccc1C2`: the pKi at D(2) dopamine receptor [1] is 9.26; at D(2) dopamine receptor [2] it was 7.89; at D(1A) dopamine receptor [3] it was 7.55; at D(1A) dopamine receptor [4] it was 7.62; at D(1B) dopamine receptor [5] it was 8.14; on D(3) dopamine receptor it was 7.12.

Consider `CN1CCc2ccccc2Cc2ccc(O)c(Cl)c2CC1`, for which the pKi was 8.21 at D(2) dopamine receptor [1]; 8.40 on D(2) dopamine receptor [2]; 9.08 at D(1A) dopamine receptor [3]; 9.34 on D(1A) dopamine receptor [4]; 10.28 at D(1B) dopamine receptor [5]; 8.28 at D(4) dopamine receptor. Moreover, the pKi was 10.24 on D(1B) dopamine receptor [6] and 7.61 at D(3) dopamine receptor.

In the case of `CN1CCc2ccccc2Cc2cc(N)c(O)cc2CC1`, the pKi was 7.58 at D(2) dopamine receptor [1]; 7.43 on D(2) dopamine receptor [2]; 8.03 on D(1A) dopamine receptor [3]; 7.68 on D(1A) dopamine receptor [4]; 7.40 on D(1B) dopamine receptor [5]; 6.64 on D(1B) dopamine receptor [6].

Consider `CN1CCc2ccccc2Cc2cc(O)c(Cl)cc2CC1`, for which the pKi at D(2) dopamine receptor [1] was 8.32; at D(2) dopamine receptor [2] it was 8.70; at D(1A) dopamine receptor [3], 8.51; on D(1A) dopamine receptor [4], 7.97; on D(1B) dopamine receptor [5], 8.51; on D(1B) dopamine receptor [6] it was 8.31. For the same molecule, the pKi on D(3) dopamine receptor is 7.56.

In the case of `CN1CCc2ccccc2Cc2c(ccc(O)c2Cl)CC1`, the pKi at D(2) dopamine receptor [1] is 9.89; on D(2) dopamine receptor [2], 9.00; at D(1A) dopamine receptor [3], 9.34; on D(1A) dopamine receptor [4] it was 8.17; at D(1B) dopamine receptor [5], 8.80; on D(1B) dopamine receptor [6], 9.01. At D(3) dopamine receptor, the pKi was 8.73.

Turning to `CN1CCc2ccccc2Cc2c(O)cccc2CC1`, the negative logarithm of the Ki (pKi) on D(2) dopamine receptor [1] is 8.10; on D(2) dopamine receptor [2], 7.08; at D(1A) dopamine receptor [3], 8.06; at D(1A) dopamine receptor [4], 7.19; on D(1B) dopamine receptor [5], 7.98; on D(3) dopamine receptor, 6.67.

With `COc1ccc2c(c1)Cc1ccccc1CCN(C)CC2`, the pKi at D(2) dopamine receptor [1] was 7.68; at D(2) dopamine receptor [2], 7.21; on D(1A) dopamine receptor [3], 7.09; at D(1A) dopamine receptor [4], 6.25; at D(1B) dopamine receptor [5] it was 5.98; at D(3) dopamine receptor, 6.82.

As for `CN1CCc2cc(O)ccc2Cc2ccc(O)cc2CC1`, the pKi is 7.72 at D(2) dopamine receptor [1]; 7.23 at D(2) dopamine receptor [2]; 8.70 at D(1A) dopamine receptor [3]; 8.48 at D(1A) dopamine receptor [4]; 9.27 at D(1B) dopamine receptor [5]; 8.77 at D(1B) dopamine receptor [6]. Besides, the pKi at D(3) dopamine receptor was 6.47.

As to `CN1CCc2ccccc2Cc2cc(Cl)c(O)c(Cl)c2CC1`, the pKi on D(2) dopamine receptor [1] is 7.43; at D(2) dopamine receptor [2], 7.06; on D(1A) dopamine receptor [3] it was 8.49; on D(1A) dopamine receptor [4] it was 8.42; on D(1B) dopamine receptor [5] it was 8.92.

For the molecule `CN1CCc2ccccc2Cc2[nH]c3ccccc3c2CC1`, the pKi was 7.72 on D(2) dopamine receptor [1]; 7.35 on D(2) dopamine receptor [2]; 8.72 on D(1A) dopamine receptor [3]; 7.90 at D(1B) dopamine receptor [5]; 8.12 on D(1B) dopamine receptor [6].

With `COc1cccc2c1Cc1ccccc1CCN(C)CC2`, the pKi at D(2) dopamine receptor [1] was 7.40; at D(2) dopamine receptor [2], 6.79; on D(1A) dopamine receptor [3], 8.12; at D(1A) dopamine receptor [4] it was 7.42; on D(1B) dopamine receptor [5] it was 7.26; on D(3) dopamine receptor, 5.74.

As to `COc1c(Cl)cc2c(c1Cl)Cc1ccccc1CCN(C)CC2`, the pKi on D(2) dopamine receptor [1] is 8.60; at D(2) dopamine receptor [2] it was 6.68; at D(1A) dopamine receptor [3], 7.60; on D(1A) dopamine receptor [4], 7.47; on D(1B) dopamine receptor [5], 7.23; at D(3) dopamine receptor it was 6.38.
